Literature values in patent US10563263B2, “Genetic polymorphisms associated with statin response and cardiovascular diseases, methods of detection and uses thereof” (CELERA CORPORATION, priority 2010, dated 2020).

System: major cardiovascular events
Settings: JUPITER Study, 17,802 individuals (Ridker et al. 2008); cited from earlier work

In the case of `CC(C)c1nc(N(C)S(C)(=O)=O)nc(-c2ccc(F)cc2)c1/C=C/[C@@H](O)C[C@@H](O)CC(=O)O` [rosuvastatin], the “incidence of major cardiovascular events (MI, stroke, arterial revascularization, hospitalization for unstable angina, death from cardiovascular causes)” value is listed as “significantly reduced the incidence of major cardiovascular events”.
